According to publication PMC8550792, “Evolution of kinase polypharmacology across HSP90 drug discovery” (Cell Chemical Biology, 2021):
Values joined by “and” are separate entries in the source; they are usually repeats but may differ in a detail not shown here. Equal values may be shown once. Read-outs that look alike come from different tables or passages of the source.

Columns and labels:
382 unique human kinases [1] = target: T1, 382 unique human kinases (Homo sapiens, UniProt P50750); assay: biochemical; format: biochemical; conditions: for remaining activity at 10 µM: read-out: % Enzyme Activity (relative to DMSO controls)
T1 construct: purchased Reaction Biology (HotSpot contract assay)
T1 sequence (P50750 whole entry): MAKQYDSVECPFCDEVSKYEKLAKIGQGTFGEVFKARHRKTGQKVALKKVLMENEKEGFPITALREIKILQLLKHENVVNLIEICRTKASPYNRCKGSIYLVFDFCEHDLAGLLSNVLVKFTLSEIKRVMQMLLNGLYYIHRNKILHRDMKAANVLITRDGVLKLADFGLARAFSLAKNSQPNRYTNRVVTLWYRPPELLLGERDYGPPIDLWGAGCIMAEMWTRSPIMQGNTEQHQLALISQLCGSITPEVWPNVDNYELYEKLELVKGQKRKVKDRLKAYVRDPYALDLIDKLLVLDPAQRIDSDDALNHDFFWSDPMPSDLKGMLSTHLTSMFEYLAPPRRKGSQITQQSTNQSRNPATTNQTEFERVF

382 unique human kinases [2] = target: T2, 382 unique human kinases (Homo sapiens, UniProt P24941); assay: biochemical; format: biochemical; conditions: for remaining activity at 10 µM: read-out: % Enzyme Activity (relative to DMSO controls)
T2 construct: purchased Reaction Biology (HotSpot contract assay)

382 unique human kinases [3] = target: T3, 382 unique human kinases (Homo sapiens, UniProt P11802); assay: biochemical; format: biochemical; conditions: CDK4/cyclin D1, 10 uM; for remaining activity at 10 µM: read-out: % Enzyme Activity (relative to DMSO controls)
T3 construct: purchased Reaction Biology (HotSpot contract assay)
T3 sequence (P11802 whole entry): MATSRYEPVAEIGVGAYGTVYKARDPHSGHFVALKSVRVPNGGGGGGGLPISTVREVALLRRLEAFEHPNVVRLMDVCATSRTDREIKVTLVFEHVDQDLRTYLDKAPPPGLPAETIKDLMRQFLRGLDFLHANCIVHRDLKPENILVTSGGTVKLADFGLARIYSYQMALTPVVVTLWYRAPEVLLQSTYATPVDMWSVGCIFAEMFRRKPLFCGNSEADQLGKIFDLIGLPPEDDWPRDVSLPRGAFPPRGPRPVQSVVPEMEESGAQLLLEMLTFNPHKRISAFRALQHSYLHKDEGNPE

382 unique human kinases [4] = target: T4, 382 unique human kinases (Homo sapiens, UniProt O60674, V617F); assay: biochemical; format: biochemical; conditions: kinase JAK2 (V617F), compound 10 uM; for remaining activity at 10 µM: read-out: % Enzyme Activity (relative to DMSO controls)
T4 construct: purchased Reaction Biology (HotSpot contract assay)

382 unique human kinases [5] = target: T5, 382 unique human kinases (Homo sapiens, UniProt P36507); assay: biochemical; format: biochemical; conditions: MEK2, 10 uM; for remaining activity at 10 µM: read-out: % Enzyme Activity (relative to DMSO controls)
T5 construct: purchased Reaction Biology (HotSpot contract assay)
T5 sequence (P36507 whole entry): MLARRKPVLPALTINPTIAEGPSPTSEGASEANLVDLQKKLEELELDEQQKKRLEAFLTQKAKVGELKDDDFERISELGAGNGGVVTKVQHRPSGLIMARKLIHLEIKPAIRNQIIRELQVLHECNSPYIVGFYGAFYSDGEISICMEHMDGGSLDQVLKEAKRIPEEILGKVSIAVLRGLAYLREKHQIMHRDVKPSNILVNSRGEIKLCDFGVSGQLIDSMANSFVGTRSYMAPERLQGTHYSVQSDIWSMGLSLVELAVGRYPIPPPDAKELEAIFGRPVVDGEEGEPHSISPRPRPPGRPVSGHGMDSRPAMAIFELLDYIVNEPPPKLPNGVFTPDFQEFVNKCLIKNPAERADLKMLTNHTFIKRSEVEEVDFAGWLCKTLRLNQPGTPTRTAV

382 unique human kinases [6] = target: T6, 382 unique human kinases (Homo sapiens, UniProt Q00534); assay: biochemical; format: biochemical; conditions: kinase CDK6/cyclin D1, compound 10 uM; for remaining activity at 10 µM: read-out: % Enzyme Activity (relative to DMSO controls)
T6 construct: purchased Reaction Biology (HotSpot contract assay)

382 unique human kinases [7] = assay: biochemical; format: biochemical
ABL1 = ABL1 (Homo sapiens, UniProt P00519); assay: HotSpot in vitro kinase radiometric assay; format: biochemical; set-up: purchased Reaction Biology (HotSpot contract assay)
ABL1, sequence (P00519 whole entry): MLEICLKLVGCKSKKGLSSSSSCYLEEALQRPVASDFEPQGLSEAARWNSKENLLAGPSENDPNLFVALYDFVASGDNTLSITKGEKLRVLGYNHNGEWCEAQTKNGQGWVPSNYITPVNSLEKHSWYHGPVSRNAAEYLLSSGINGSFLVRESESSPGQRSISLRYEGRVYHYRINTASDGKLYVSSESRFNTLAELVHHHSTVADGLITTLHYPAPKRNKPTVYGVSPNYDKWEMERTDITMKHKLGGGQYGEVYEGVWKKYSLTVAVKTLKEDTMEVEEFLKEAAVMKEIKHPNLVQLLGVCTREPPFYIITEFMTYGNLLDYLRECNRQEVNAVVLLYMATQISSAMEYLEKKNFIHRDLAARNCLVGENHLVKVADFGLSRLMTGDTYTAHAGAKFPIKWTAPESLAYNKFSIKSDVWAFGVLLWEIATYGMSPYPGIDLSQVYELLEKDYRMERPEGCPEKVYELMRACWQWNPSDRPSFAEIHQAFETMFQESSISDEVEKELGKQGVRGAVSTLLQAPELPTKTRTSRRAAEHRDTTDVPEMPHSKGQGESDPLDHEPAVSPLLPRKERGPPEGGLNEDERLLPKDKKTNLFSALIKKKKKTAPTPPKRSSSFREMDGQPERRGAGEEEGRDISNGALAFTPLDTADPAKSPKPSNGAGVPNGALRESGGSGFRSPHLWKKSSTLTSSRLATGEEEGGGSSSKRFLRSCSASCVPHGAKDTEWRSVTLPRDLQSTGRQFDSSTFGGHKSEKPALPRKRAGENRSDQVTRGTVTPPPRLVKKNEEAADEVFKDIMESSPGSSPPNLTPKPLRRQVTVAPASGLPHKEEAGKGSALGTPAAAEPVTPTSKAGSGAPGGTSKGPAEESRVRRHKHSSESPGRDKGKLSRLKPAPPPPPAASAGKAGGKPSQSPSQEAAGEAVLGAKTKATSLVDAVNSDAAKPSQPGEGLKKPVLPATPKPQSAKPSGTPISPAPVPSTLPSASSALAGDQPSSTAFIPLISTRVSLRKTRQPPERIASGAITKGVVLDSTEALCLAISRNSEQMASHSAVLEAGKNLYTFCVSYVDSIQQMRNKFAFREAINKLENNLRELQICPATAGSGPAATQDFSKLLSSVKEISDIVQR

HSP90AB1 = test system: HSP90AB1; set-up: method as in ChEMBL23 (accessed: 23/08/2018); conditions: average of reported values; ref ChEMBL23 (accessed: 23/08/2018); cited from earlier work
ABL2/ARG = target: T7, ABL2/ARG (Homo sapiens, UniProt P42684); assay: HotSpot in vitro kinase radiometric assay; format: biochemical
T7 construct: purchased Reaction Biology (HotSpot contract assay)
T7 sequence (P42684 whole entry): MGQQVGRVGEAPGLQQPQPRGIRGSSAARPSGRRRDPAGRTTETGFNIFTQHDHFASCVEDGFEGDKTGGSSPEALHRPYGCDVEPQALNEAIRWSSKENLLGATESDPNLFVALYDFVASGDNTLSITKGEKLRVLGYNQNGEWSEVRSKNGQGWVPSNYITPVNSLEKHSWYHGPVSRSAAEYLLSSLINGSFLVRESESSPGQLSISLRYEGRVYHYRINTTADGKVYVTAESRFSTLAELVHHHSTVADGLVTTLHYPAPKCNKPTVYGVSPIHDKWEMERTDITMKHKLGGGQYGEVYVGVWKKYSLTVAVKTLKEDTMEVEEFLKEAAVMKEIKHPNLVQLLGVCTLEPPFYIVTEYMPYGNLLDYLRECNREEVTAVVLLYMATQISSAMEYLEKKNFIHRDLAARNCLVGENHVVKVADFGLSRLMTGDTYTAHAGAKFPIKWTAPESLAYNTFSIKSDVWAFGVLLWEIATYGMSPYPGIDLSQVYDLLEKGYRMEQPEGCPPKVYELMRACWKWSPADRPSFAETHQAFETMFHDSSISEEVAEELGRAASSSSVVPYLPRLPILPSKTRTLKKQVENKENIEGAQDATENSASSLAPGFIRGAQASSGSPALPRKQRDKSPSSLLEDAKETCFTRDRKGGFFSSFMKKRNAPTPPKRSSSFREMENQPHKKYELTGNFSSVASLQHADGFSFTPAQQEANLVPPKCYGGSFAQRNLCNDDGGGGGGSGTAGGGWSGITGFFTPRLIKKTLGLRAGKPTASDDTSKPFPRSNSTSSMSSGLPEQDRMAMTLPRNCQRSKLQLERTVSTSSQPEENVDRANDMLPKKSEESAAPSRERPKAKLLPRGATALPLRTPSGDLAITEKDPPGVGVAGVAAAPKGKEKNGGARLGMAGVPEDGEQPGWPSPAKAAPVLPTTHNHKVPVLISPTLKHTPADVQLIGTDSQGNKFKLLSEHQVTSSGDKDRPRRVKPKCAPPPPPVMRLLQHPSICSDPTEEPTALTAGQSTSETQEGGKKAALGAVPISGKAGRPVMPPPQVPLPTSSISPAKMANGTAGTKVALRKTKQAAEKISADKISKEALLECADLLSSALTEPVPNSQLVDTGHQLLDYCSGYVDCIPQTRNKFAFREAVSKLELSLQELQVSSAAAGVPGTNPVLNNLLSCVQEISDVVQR

DDR1 = DDR1 (Homo sapiens, UniProt Q08345); assay: HotSpot in vitro kinase radiometric assay; format: biochemical; set-up: purchased Reaction Biology (HotSpot contract assay)
PDK2/PDHK2 = target: T8, PDK2/PDHK2 (Homo sapiens, UniProt Q15119); assay: HotSpot in vitro kinase radiometric assay; format: biochemical
T8 construct: purchased Reaction Biology (HotSpot contract assay)
In short: (§1)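 Kinase + substrate + cofactors + 32P-ɣ-ATP or 33P-ɣ-ATP incubated with compound; mixture spotted on filter paper; bound radiolabelled product counted. Direct catalytic activity readout.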

BLK = target: T9, BLK (Homo sapiens, UniProt P51451); assay: HotSpot in vitro kinase radiometric assay; format: biochemical
T9 construct: purchased Reaction Biology (HotSpot contract assay)
T9 sequence (P51451 whole entry): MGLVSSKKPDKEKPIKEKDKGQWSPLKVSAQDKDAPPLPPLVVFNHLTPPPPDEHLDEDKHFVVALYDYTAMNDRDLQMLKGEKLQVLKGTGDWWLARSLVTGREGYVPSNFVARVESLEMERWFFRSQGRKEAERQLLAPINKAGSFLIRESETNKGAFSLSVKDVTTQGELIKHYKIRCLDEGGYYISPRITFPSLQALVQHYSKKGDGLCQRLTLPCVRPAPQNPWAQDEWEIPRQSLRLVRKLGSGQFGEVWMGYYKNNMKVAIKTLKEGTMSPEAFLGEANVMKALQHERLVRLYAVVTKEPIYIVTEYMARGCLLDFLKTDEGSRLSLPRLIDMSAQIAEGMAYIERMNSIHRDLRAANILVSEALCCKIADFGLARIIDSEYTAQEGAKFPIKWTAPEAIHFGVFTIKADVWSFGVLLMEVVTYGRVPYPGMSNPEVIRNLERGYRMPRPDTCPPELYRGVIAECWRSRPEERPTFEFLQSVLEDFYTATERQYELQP
In short: as §1

c-Src = target: T10, c-Src (Homo sapiens, UniProt P12931); assay: HotSpot in vitro kinase radiometric assay; format: biochemical
T10 construct: purchased Reaction Biology (HotSpot contract assay)
In short: as §1

LYN B = target: T11, LYN B (Homo sapiens, UniProt P07948); assay: HotSpot in vitro kinase radiometric assay; format: biochemical
T11 construct: purchased Reaction Biology (HotSpot contract assay)
T11 sequence (P07948 1-491 isoform P07948-2): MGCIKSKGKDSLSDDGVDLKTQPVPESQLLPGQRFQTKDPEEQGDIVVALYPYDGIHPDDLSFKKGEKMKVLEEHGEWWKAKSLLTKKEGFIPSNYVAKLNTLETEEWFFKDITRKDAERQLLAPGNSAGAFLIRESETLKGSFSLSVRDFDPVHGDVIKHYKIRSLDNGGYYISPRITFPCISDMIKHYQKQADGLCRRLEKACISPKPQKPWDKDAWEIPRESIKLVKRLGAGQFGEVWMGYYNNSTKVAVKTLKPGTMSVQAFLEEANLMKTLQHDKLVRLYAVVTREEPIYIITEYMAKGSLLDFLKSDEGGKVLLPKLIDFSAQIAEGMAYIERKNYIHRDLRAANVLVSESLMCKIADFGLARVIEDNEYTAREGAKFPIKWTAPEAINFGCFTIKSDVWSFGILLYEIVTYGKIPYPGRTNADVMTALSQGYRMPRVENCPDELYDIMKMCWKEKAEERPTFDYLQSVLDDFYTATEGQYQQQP
In short: as §1

PDK4/PDKH4 = target: T12, PDK4/PDKH4 (Homo sapiens, UniProt Q16654); assay: HotSpot in vitro kinase radiometric assay; format: biochemical
T12 construct: purchased Reaction Biology (HotSpot contract assay)
T12 sequence (Q16654 whole entry): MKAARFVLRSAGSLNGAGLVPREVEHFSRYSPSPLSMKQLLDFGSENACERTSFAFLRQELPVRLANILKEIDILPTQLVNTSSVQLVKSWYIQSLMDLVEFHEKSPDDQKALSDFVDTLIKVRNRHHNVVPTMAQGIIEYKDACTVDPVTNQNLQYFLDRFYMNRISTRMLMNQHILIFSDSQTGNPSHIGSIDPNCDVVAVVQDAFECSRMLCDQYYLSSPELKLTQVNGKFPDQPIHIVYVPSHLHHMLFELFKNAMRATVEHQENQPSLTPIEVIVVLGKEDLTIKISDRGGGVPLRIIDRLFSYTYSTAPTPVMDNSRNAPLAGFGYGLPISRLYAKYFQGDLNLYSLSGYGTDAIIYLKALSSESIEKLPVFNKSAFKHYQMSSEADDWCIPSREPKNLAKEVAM
In short: as §1

[8] = kinase CDK9/cyclin K, compound 10 uM
[9] = kinase CDK2/cyclin O, compound 10 uM

CC(C)c1cc(-c2n[nH]c(=O)n2-c2ccc3c(ccn3C)c2)c(O)cc1O [Ganetespib (STA9090)]
remaining activity at 10 µM (382 unique human kinases [1]; CDK9/cyclin T2, 10 uM): 69.9%
remaining activity at 10 µM (382 unique human kinases [1]; [8]): 87%
remaining activity at 10 µM (382 unique human kinases [2]; CDK2/cyclin A, 10 uM): 74.3%
remaining activity at 10 µM (382 unique human kinases [2]; [9]): 92.8%
remaining activity at 10 µM (382 unique human kinases [3]): 65.6%
remaining activity at 10 µM (382 unique human kinases [4]): 83.1%
remaining activity at 10 µM (382 unique human kinases [5]): 61.1%
remaining activity at 10 µM (382 unique human kinases [6]): 85%

CCNC(=O)c1noc(-c2cc(C(C)C)c(O)cc2O)c1-c1ccc(CN2CCOCC2)cc1 [Luminespib (AUY-922)]
% Enzyme Activity (relative to DMSO controls) (382 unique human kinases [1]; CDK9/cyclin T2, 10 uM): 89.68%
remaining activity at 10 µM (382 unique human kinases [1]; CDK9/cyclin T2, 10 uM): 89.7%
% Enzyme Activity (relative to DMSO controls) (382 unique human kinases [1]; [8]): 104.02%
remaining activity at 10 µM (382 unique human kinases [1]; [8]): 104%
% Enzyme Activity (relative to DMSO controls) (382 unique human kinases [2]; CDK2/cyclin A, 10 uM): 97.81%
remaining activity at 10 µM (382 unique human kinases [2]; CDK2/cyclin A, 10 uM): 97.9%
% Enzyme Activity (relative to DMSO controls) (382 unique human kinases [2]; [9]): 100.70%
remaining activity at 10 µM (382 unique human kinases [2]; [9]): 101%
% Enzyme Activity (relative to DMSO controls) (382 unique human kinases [3]): 100.66%
remaining activity at 10 µM (382 unique human kinases [3]): 103%
% Enzyme Activity (relative to DMSO controls) (382 unique human kinases [4]): 91.38%
remaining activity at 10 µM (382 unique human kinases [4]): 91.7%
% Enzyme Activity (relative to DMSO controls) (382 unique human kinases [5]): 98.43%
remaining activity at 10 µM (382 unique human kinases [5]): 99.5%
% Enzyme Activity (relative to DMSO controls) (382 unique human kinases [6]): 105.58%
remaining activity at 10 µM (382 unique human kinases [6]): 106%
% Enzyme Activity (relative to DMSO controls) (382 unique human kinases [7]; ALK (F1174L)-EML4, 10 uM): 85.87% and 84.56%
% Enzyme Activity (relative to DMSO controls) (382 unique human kinases [7]; ALK (F1174L)-NPM1, 10 uM): 102.87% and 100.42%
% Enzyme Activity (relative to DMSO controls) (382 unique human kinases [7]; ALK-NPM1, 10 uM): 100.77% and 99.39%
% Enzyme Activity (relative to DMSO controls) (382 unique human kinases [7]; ALK-TFG, 10 uM): 100.17% and 98.13%
% Enzyme Activity (relative to DMSO controls) (382 unique human kinases [7]; BRAF (R506_K507insVLR), compound at 10 uM, duplicate values): 111.39% and 111.37%
% Enzyme Activity (relative to DMSO controls) (382 unique human kinases [7]; BRAF (d485-489/P490Y), compound at 10 uM, duplicate values): 105.00% and 104.80%
% Enzyme Activity (relative to DMSO controls) (382 unique human kinases [7]; BRAF-KIAA1549 (Kex15Bex9), compound at 10 uM, duplicate values): 106.11% and 102.92%
% Enzyme Activity (relative to DMSO controls) (382 unique human kinases [7]; BRAF-KIAA1549 (Kex16Bex9), compound at 10 uM, duplicate values): 104.70% and 104.59%
% Enzyme Activity (relative to DMSO controls) (382 unique human kinases [7]; BRAF-SRGAP3 (Sex12Bex9), compound at 10 uM, duplicate values): 107.79% and 106.99%
% Enzyme Activity (relative to DMSO controls) (382 unique human kinases [7]; PDGFRb-TPM3, 10 uM): 63.63% and 61.80%
% Enzyme Activity (relative to DMSO controls) (382 unique human kinases [7]; PKG1b, 10 uM): 60.28% and 59.59%
% Enzyme Activity (relative to DMSO controls) (382 unique human kinases [7]; RET-CCDC6 (PTC1), 10 uM): 105.26% and 102.15%
% Enzyme Activity (relative to DMSO controls) (382 unique human kinases [7]; RET-NCOA4 (PTC3), 10 uM): 95.03% and 94.64%
% Enzyme Activity (relative to DMSO controls) (382 unique human kinases [7]; RET-PRKAR1A (PTC2), 10 uM): 95.60% and 94.13%
% Enzyme Activity (relative to DMSO controls) (382 unique human kinases [7]; ROS1-TPM3, 10 uM): 97.28% and 96.49%
% Enzyme Activity (relative to DMSO controls) (382 unique human kinases [7]; kinase EGFR (A763_Y764insFHEA), compound 10 uM): 98.66% and 97.53%
% Enzyme Activity (relative to DMSO controls) (382 unique human kinases [7]; kinase EGFR (D770GY), compound 10 uM): 129.18% and 126.54%
% Enzyme Activity (relative to DMSO controls) (382 unique human kinases [7]; kinase EGFR (D770_N771insNPG), compound 10 uM): 106.12% and 103.12%
% Enzyme Activity (relative to DMSO controls) (382 unique human kinases [7]; kinase EGFR (d746), compound 10 uM): 98.75% and 97.31%
% Enzyme Activity (relative to DMSO controls) (382 unique human kinases [7]; kinase EGFR (d746-750/T790M/C797S), compound 10 uM): 100.68% and 100.47%
% Enzyme Activity (relative to DMSO controls) (382 unique human kinases [7]; kinase EGFR (d747-752/P753S), compound 10 uM): 98.74% and 98.40%
% Enzyme Activity (relative to DMSO controls) (382 unique human kinases [7]; kinase ERBB2 (P780_Y781insGSP), compound 10 uM): 96.69% and 95.30%
% Enzyme Activity (relative to DMSO controls) (382 unique human kinases [7]; kinase KSR1 (L639F), compound 10 uM): 103.34% and 102.74%
% Enzyme Activity (relative to DMSO controls) (382 unique human kinases [7]; kinase PDGFRa-FIP1L1, compound 10 uM): 98.64% and 97.51%
% Enzyme Activity (relative to DMSO controls) (382 unique human kinases [7]; kinase RET-BCR, compound 10 uM): 97.53% and 96.48%

CCNC(=O)c1noc(-c2cc(Cl)c(O)cc2O)c1-c1ccc(OC)cc1 [VER-50589]
% Enzyme Activity (relative to DMSO controls) (ABL1; ABL1, 10uM, ATP 40 uM, Data 1, Data 2): 99.15%
remaining activity at 10 µM (ABL1; ABL1, 10uM, ATP 40 uM, Data 1, Data 2, read-out: % Enzyme Activity (relative to DMSO controls)): 96%
inhibition at 10 µM (ABL1; read-out: % inhibition at 10 uM: ABL1, 10 μM, Fig 6C median ± standard deviation (n = 2)): 2 ± 2%
pActivity, HSP90AB1 (HSP90AB1): 7.55
% Enzyme Activity (relative to DMSO controls) (ABL2/ARG; ABL2/ARG, 10uM, ATP 30 uM, Data 1, Data 2): 107.1%
remaining activity at 10 µM (ABL2/ARG; ABL2/ARG, 10uM, ATP 30 uM, Data 1, Data 2, read-out: % Enzyme Activity (relative to DMSO controls)): 99.9%
inhibition at 10 µM (ABL2/ARG; read-out: % inhibition at 10 uM: ABL2, 10 μM, Fig 6C median ± standard deviation (n = 2)): -4 ± 5%
% Enzyme Activity (relative to DMSO controls) (DDR1; DDR1, 10uM, ATP 100 uM, Data 1, Data 2): 93.93%
remaining activity at 10 µM (DDR1; DDR1, 10uM, ATP 100 uM, Data 1, Data 2, read-out: % Enzyme Activity (relative to DMSO controls)): 90.3%
inhibition at 10 µM (DDR1; read-out: % inhibition at 10 uM: DDR1, 10 μM, Fig 6C median ± standard deviation (n = 2)): 8 ± 3%
% Enzyme Activity (relative to DMSO controls) (PDK2/PDHK2; PDK2/PDHK2, 10uM, ATP 15 uM, Data 1, Data 2): 9.11% and 0.34%
inhibition at 10 µM (PDK2/PDHK2; read-out: % inhibition at 10 uM: PDK2, 10 μM, Fig 6C median ± standard deviation (n = 2)): 95 ± 6%
% Enzyme Activity (relative to DMSO controls) (BLK; BLK, 10uM, ATP 10 uM, Data 1, Data 2): 99.82%
remaining activity at 10 µM (BLK; BLK, 10uM, ATP 10 uM, Data 1, Data 2, read-out: % Enzyme Activity (relative to DMSO controls)): 94%
inhibition at 10 µM (BLK; read-out: % inhibition at 10 uM: BLK, 10 μM, Fig 6C median ± standard deviation (n = 2)): 3 ± 4%
% Enzyme Activity (relative to DMSO controls) (c-Src; c-Src, 10uM, ATP 15 uM, Data 1, Data 2): 103.77% and 68.69%
inhibition at 10 µM (c-Src; read-out: % inhibition at 10 uM: SRC, 10 μM, Fig 6C median ± standard deviation (n = 2)): 14 ± 25%
% Enzyme Activity (relative to DMSO controls) (LYN B; LYN B, 10uM, ATP 20 uM, Data 1, Data 2): 103.45%
remaining activity at 10 µM (LYN B; LYN B, 10uM, ATP 20 uM, Data 1, Data 2, read-out: % Enzyme Activity (relative to DMSO controls)): 105%
inhibition at 10 µM (LYN B; read-out: % inhibition at 10 uM: LYN B, 10 μM, Fig 6C median ± standard deviation (n = 2)): -4 ± 1%
% Enzyme Activity (relative to DMSO controls) (PDK4/PDKH4; PDK4/PDKH4, 10uM, ATP 30 uM, Data 1, Data 2): -0.13% and 4.42%
inhibition at 10 µM (PDK4/PDKH4; read-out: % inhibition at 10 uM: PDK4, 10 μM, Fig 6C median ± standard deviation (n = 2)): 98 ± 3%
